Holding throughout (experiment): ≥ marks a high value that may be exact or a test limit, other limits are often not marked, values filed in µg/mL are converted to µM
Experiment [1] has as its system Klebsiella pneumoniae ATCC 10031.
The subject of experiment [2] is Staphylococcus epidermidis ATCC 12228.
Experiment [3] deals with Staphylococcus aureus ATCC 6538P.
Experiment [4] relates to Staphylococcus aureus TK784.
The subject of experiment [5] is Escherichia coli ATCC 25922.
The test system of experiment [6] is Salmonella enterica subsp. enterica serovar Typhimurium ATCC 14028.
Experiment [7] concerns Shigella dysenteriae ATCC 9752.
The test system of experiment [8] is Bacillus subtilis ATCC 6633.
The test system of experiment [9] is Micrococcus luteus ATCC 10240.
Experiment [10] concerns Pseudomonas aeruginosa ATCC 27853.
In experiment [11] the test system is Bordetella bronchiseptica CUN 11844-99.
Experiment [12] deals with Stenotrophomonas maltophilia CUN 3998-00.
Experiment [13] relates to Staphylococcus aureus ATCC 25923.
Experiment [14] deals with Staphylococcus aureus ATCC 43300.
Experiment [15] has as its system Staphylococcus aureus CUN 3792-99.
Experiment [16] concerns Acinetobacter baumannii ATCC 19606.
The test system of experiment [17] is Pseudomonas aeruginosa CUN 4158-02.
Experiment [18] concerns Candida albicans ATCC 90028.
Experiment [19] deals with Escherichia coli ATCC 25726.
The subject of experiment [20] is Batrachochytrium dendrobatidis JEL-197.
Experiment [21] has as its system Rhodococcus rhodochrous X15.
For experiment [22], the system named is Psychrobacter faecalis X29.
Experiment [23] relates to Staphylococcus carnosus KHS.
Experiment [24] relates to Candida albicans ATCC 2002.
The test system of experiment [25] is Bacillus licheniformis X39.
Experiment [26] concerns Pseudomonas aeruginosa 78905.
Experiment [27] concerns Pseudomonas aeruginosa 78327.
Experiment [28] concerns Pseudomonas aeruginosa 78073.
Experiment [29] has as its system Staphylococcus aureus NCTC 8325.
Experiment [30] deals with Pseudomonas aeruginosa 77733.
Experiment [31] has as its system Pseudomonas aeruginosa 78887.
Experiment [32] deals with Enterobacter cloacae NHTCC 53001.
Experiment [33] relates to Pseudomonas aeruginosa 87104.
Experiment [34] has as its system Pseudomonas aeruginosa 77319.
Experiment [35] concerns Pseudomonas aeruginosa 78888.
The test system of experiment [36] is Pseudomonas aeruginosa 77905.
Experiment [37] concerns Klebsiella pneumoniae KK3 9904.
Experiment [38] concerns Pseudomonas aeruginosa 78078.

In brackets after ≈: the same amount, converted by molar mass. Some results are limits rather than exact numbers.

`CC(C)C[C@H](NC(=O)[C@H](CCCCN)NC(=O)[C@H](CCCCN)NC(=O)[C@H](CC(C)C)NC(=O)[C@H](CC(C)C)NC(=O)[C@H](CCCCN)NC(=O)[C@H](CCCCN)NC(=O)[C@H](CC(C)C)NC(=O)[C@H](Cc1c[nH]c2ccccc12)NC(=O)[C@H](CCCCN)NC(=O)[C@@H](N)CC(C)C)C(N)=O` [LKWLKKLLKKL]: the MIC stood at 1.42 µM (≈ 2 µg/mL) in experiment [1]; 2.84 µM (≈ 4 µg/mL) in [2]; 1.42 µM (≈ 2 µg/mL) in [3]; 5.67 µM (≈ 7.99 µg/mL) in experiment [4]; 2.84 µM (≈ 4 µg/mL) in experiment [5]; 2.84 µM (≈ 4 µg/mL) in experiment [6]. The MIC in [7] is 1.42 µM (≈ 2 µg/mL); in experiment [8], 1.42 µM (≈ 2 µg/mL); in experiment [9] it was 2.84 µM (≈ 4 µg/mL); in experiment [10], 5.67 µM (≈ 7.99 µg/mL).
Consider `CC(C)C[C@H](NC(=O)[C@H](CCCN=C(N)N)NC(=O)[C@H](CCCN=C(N)N)NC(=O)[C@H](Cc1ccccc1)NC(=O)[C@H](CCCCN)NC(=O)[C@H](CCCCN)NC(=O)[C@H](CS)NC(=O)CN)C(=O)N[C@@H](CCCCN)C(=O)N[C@@H](Cc1c[nH]c2ccccc12)C(=O)N[C@@H](CCCCN)C(=O)N[C@@H](Cc1ccc(O)cc1)C(=O)N[C@@H](CCCCN)C(=O)NCC(=O)N[C@@H](CCCCN)C(=O)N[C@@H](Cc1ccccc1)C(=O)N[C@@H](Cc1c[nH]c2ccccc12)C(=O)N[C@@H](Cc1ccccc1)C(=O)N[C@@H](Cc1c[nH]c2ccccc12)C(=O)N[C@@H](CS)C(=O)NCC(N)=O` [GCKKFRRLKWKYKGKFWFWCG], for which the MIC in experiment [11] is 1.45 µM (≈ 4 µg/mL); in [12] it was at least 186 µM; in experiment [13], 11.6 µM (≈ 32 µg/mL); in experiment [14] it was 23.2 µM (≈ 64 µg/mL); in [5], 23.2 µM (≈ 64 µg/mL); in [15] it was at least 372 µM. The MIC in [16] was 23.2 µM (≈ 64 µg/mL); in [17] it was at least 93 µM; in [10], 93 µM (≈ 256 µg/mL).
On to `CC[C@H](C)[C@H](NC(=O)[C@H](CO)NC(=O)[C@@H]1CCCN1C(=O)[C@@H](NC(=O)[C@H](CC(C)C)NC(=O)CNC(=O)[C@@H](NC(=O)[C@H](CC(C)C)NC(=O)[C@@H](NC(=O)[C@@H]1CCCN1C(=O)[C@H](CC(C)C)NC(=O)[C@@H](N)Cc1ccccc1)C(C)C)[C@@H](C)O)[C@@H](C)O)C(=O)N[C@H](C(=O)N1CCC[C@H]1C(=O)N[C@@H](CCCCN)C(=O)N[C@@H](CC(C)C)C(=O)N[C@H](C(=O)N[C@H]1CSSC[C@@H](C(=O)O)NC(=O)[C@H](CCCCN)NC(=O)[C@H](CCCCN)NC(=O)[C@H]([C@@H](C)O)NC(=O)[C@H](CC(C)C)NC(=O)[C@H](CC(C)C)NC1=O)C(C)C)C(C)C` [FLPVLTGLTPSIVPKLVCLLTKKC], for which the minimal inhibitory concentration (MIC) in experiment [18] was at least 100 µM; in [19], at least 100 µM; in [20], at least 50 µM; in experiment [13], 50 µM (≈ 129 µg/mL).
Consider `CC[C@H](C)[C@H](NC(=O)[C@H](CCCCN)NC(=O)[C@H](CCCCN)NC(=O)[C@H](C)NC(=O)[C@H](CC(C)C)NC(=O)[C@H](CC(N)=O)NC(=O)[C@@H](NC(=O)[C@@H](NC(=O)[C@@H](NC(=O)[C@H](CC(N)=O)NC(=O)[C@H](CC(C)C)NC(=O)[C@@H](NC(=O)[C@@H](N)CC(N)=O)[C@@H](C)CC)[C@@H](C)O)[C@@H](C)CC)[C@@H](C)CC)C(=O)N[C@@H](CC(C)C)C(N)=O` [NILNTIINLAKKIL], for which the MIC in [21] is 2.4 µM (≈ 3.79 µg/mL); in experiment [22], at least 37.5 µM; in experiment [13] it was 4.8 µM (≈ 7.58 µg/mL); in experiment [23], 19 µM (≈ 30 µg/mL); in experiment [24], 9.5 µM (≈ 15 µg/mL); in experiment [25] it was 19 µM (≈ 30 µg/mL).
`CC[C@H](C)[C@H](NC(=O)[C@H](Cc1cnc[nH]1)NC(=O)[C@H](CCCCN)NC(=O)CNC(=O)[C@H](C)NC(=O)[C@@H](NC(=O)[C@H](CCCCN)NC(=O)[C@H](CC(C)C)NC(=O)[C@@H](NC(=O)CNC(=O)[C@H](CCCCN)NC(=O)[C@H](Cc1ccccc1)NC(=O)[C@H](CC(C)C)NC(=O)[C@H](CO)NC(=O)[C@H](CCSC)NC(=O)[C@H](CC(C)C)NC(=O)CN)C(C)C)[C@@H](C)O)C(=O)N[C@@H](Cc1ccccc1)C(=O)N[C@@H](CCCCN)C(=O)N[C@@H](CC(N)=O)C(=O)N[C@H](C(=O)NCC(=O)NCC(=O)N[C@@H](CO)C(=O)N[C@@H](CC(C)C)C(=O)N[C@@H](CC(C)C)C(=O)N[C@@H](CC(=O)O)C(=O)N[C@@H](CCC(N)=O)C(=O)N[C@@H](C)C(=O)N[C@@H](CCCCN)C(=O)N[C@H]1CSSC[C@@H](C(=O)O)NC(=O)[C@H](CCC(=O)O)NC(=O)CNC(=O)[C@H]([C@@H](C)O)NC(=O)[C@H]([C@@H](C)CC)NC(=O)[C@H](CCCCN)NC1=O)C(C)C` [GLMSLFKGVLKTAGKHIFKNVGGSLLDQAKCKITGEC]: the MIC in [26] was 12 µM (≈ 46.7 µg/mL); in [27] it was 6 µM (≈ 23.4 µg/mL); in experiment [28] it was 6 µM (≈ 23.4 µg/mL); in [29], 25 µM (≈ 97.3 µg/mL); in [18], at least 100 µM; in experiment [30] it was 12 µM (≈ 46.7 µg/mL). The MIC is 6 µM (≈ 23.4 µg/mL) in experiment [31]; 6 µM (≈ 23.4 µg/mL) in experiment [32]; 6 µM (≈ 23.4 µg/mL) in experiment [33]; 12 µM (≈ 46.7 µg/mL) in experiment [34]; 12 µM (≈ 46.7 µg/mL) in [35]; 6 µM (≈ 23.4 µg/mL) in experiment [36]. Further, the minimal inhibitory concentration (MIC) was 6 µM (≈ 23.4 µg/mL) in experiment [5], 6 µM (≈ 23.4 µg/mL) in [37], 12 µM (≈ 46.7 µg/mL) in experiment [38] and 3 µM (≈ 11.7 µg/mL) in experiment [10].

(Values after DBAASP.)
